Experimental findings from ChEMBL document CHEMBL3856182, “How much successful are the medicinal chemists in modulation of SIRT1: A critical review” (Eur J Med Chem, 2016) are described below.

The nature of data set [1]: Cytotoxicity in human Caco2 cells assessed as growth inhibition measured after 48 hrs by MTT assay. The conditions noted are these: Caco-2, 48 h. Type of data set: functional.
A short description of data set [2]: Cytotoxicity in human LNCAP cells assessed as growth inhibition measured after 48 hrs by MTT assay. Type of data set: functional. A general note: Tetrazolium assays rely on reduction of a dye to a coloured formazan, in cell work by metabolically active cells.
Data set [3] can be described thus: Cytotoxicity in human MDA-MB-231 cells assessed as growth inhibition measured after 48 hrs by MTT assay. The following applies: MDA-MB-231, 48 h. In kind it is functional.
Data set [4] in a line: Cytotoxicity in human U937 cells assessed as growth inhibition measured after 48 hrs by MTT assay. Type of data set: functional. The conditions noted are these: U-937, 48 h.
A short description of data set [5]: Cytotoxicity in HEK293 cells assessed as growth inhibition measured after 48 hrs by MTT assay. Type of data set: toxicity, cell-based. The conditions noted are these: human.
The target of data set [6] is T1, NAD-dependent protein deacetylase sirtuin-1 (Homo sapiens, UniProt Q96EB6).
T1 sequence (Q96EB6 whole entry): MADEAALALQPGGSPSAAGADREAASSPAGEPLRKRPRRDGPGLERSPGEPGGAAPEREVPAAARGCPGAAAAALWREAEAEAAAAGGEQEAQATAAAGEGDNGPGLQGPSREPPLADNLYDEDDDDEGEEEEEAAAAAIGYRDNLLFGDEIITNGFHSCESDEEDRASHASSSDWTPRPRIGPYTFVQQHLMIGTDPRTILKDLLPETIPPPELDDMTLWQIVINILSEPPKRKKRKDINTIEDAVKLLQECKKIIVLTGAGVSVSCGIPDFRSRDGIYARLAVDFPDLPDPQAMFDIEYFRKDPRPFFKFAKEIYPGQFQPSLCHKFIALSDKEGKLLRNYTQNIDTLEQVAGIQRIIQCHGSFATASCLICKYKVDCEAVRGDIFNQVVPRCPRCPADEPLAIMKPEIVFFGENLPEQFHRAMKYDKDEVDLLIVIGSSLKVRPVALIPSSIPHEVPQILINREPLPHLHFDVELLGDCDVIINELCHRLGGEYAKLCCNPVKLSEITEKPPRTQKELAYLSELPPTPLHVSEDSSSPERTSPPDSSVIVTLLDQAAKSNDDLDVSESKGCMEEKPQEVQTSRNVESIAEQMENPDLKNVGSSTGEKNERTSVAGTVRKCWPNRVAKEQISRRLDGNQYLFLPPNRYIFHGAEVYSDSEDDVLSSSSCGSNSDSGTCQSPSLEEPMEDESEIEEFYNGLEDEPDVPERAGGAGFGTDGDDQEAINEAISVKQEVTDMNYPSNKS
The data set is described as follows: Activation of recombinant human SIRT1 assessed as increase in deacetylation of Fluor de Lys-SIRT1-specific substrate after 2 hrs by HTS assay.

In data set [7] the target is T2, NAD-dependent protein deacetylase sirtuin-1 (Homo sapiens) (UniProt Q96EB6).
T2 sequence (whole entry): T1 sequence (Q96EB6 whole entry)
Put plainly: Activation of recombinant human SIRT1 using TPE-GK(Ac)YDD as substrate at 1 to 50 uM by fluorescence assay relative to control.

Data set [8] addresses T1, NAD-dependent protein deacetylase sirtuin-1. The data set is described as follows: Inhibition of SIRT1 (unknown origin) using acetylated lysine as substrate by Fluor de Lys assay.
The target is the same in data set [9]. The data set is described as follows: Inhibition of recombinant SIRT1 (unknown origin) assessed as deacetylation activity using acetylated p53 as substrate measured after 2 hrs by Fluor de Lys assay.
Data set [10] shares this target. Put plainly: Inhibition of human SIRT1 assessed as deacetylation activity preincubated with protein followed by addition of AMC-tagged Arg-His-Lys-Lys(Ac) (379 to 382 residues) as substrate measured after 45 mins in presence of NAD+ by fluorescence assay.
Data set [11] is described as follows: Cytotoxicity against human breast cancer cells. The following applies: Cancer cell lines. Type of data set: functional.
The nature of data set [12]: Cytotoxicity against human prostate cancer cells. The conditions noted are these: Cancer cell lines. In kind it is functional.
Data set [13] can be described thus: Cytotoxicity against human colon cancer cells. The following applies: Cancer cell lines. Type of data set: functional.
Data set [14] can be described thus: Cytotoxicity against human lung cancer cells. Type of data set: functional. The conditions noted are these: Cancer cell lines.
Data set [15] can be described thus: Cytotoxicity against human leukemia cells. In kind it is functional. The conditions noted are these: Leukemia cell.
The nature of data set [16]: Cytotoxicity against human kidney cancer cells. Type of data set: functional. The following applies: Cancer cell lines.
Data set [17] concerns the target NAD-dependent histone deacetylase SIR2 (Saccharomyces cerevisiae S288c, UniProt P06700). Put plainly: Non-competitive inhibition of recombinant yeast glutathione-S-transferase-tagged SIRT2 using acetylated histone as substrate measured after 30 mins by fluorimetric analysis.
For data set [18], the target named is T2, NAD-dependent protein deacetylase sirtuin-1 (Homo sapiens). Put plainly: Activation of recombinant human SIRT1 using TPE-GK(Ac)YDD as substrate at 50 uM by fluorescence assay relative to control.
Data set [19] deals with T1, NAD-dependent protein deacetylase sirtuin-1. Put plainly: Inhibition of human SIRT1 using biotinylated peptide with an acetylated FLAG sequence as substrate measured after 3 hr in presence of NAD+ by TR-FRET assay.
The target in data set [20] is T3, NAD-dependent protein deacetylase sirtuin-2 (Homo sapiens, UniProt Q8IXJ6).
T3 sequence (Q8IXJ6 whole entry): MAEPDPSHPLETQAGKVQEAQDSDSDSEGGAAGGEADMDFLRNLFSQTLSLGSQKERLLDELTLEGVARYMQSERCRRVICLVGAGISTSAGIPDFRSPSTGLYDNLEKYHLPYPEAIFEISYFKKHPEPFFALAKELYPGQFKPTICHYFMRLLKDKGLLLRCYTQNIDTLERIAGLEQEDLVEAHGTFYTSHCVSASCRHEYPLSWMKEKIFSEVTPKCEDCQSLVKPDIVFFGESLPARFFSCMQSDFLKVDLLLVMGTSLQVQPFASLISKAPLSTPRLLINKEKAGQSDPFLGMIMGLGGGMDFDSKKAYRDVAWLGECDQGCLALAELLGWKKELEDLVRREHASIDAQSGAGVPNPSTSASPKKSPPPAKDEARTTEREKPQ
The data set is described as follows: Inhibition of human SIRT2 using biotin labeled histone H4 peptide with an acetylated lysine 4 as substrate measured after 1 hr by luminescence analysis.

In data set [21] the target is T1, NAD-dependent protein deacetylase sirtuin-1. Put plainly: Inhibition of recombinant human GST-tagged SIRT1 overexpressed in Escherichia coli DH5alpha assessed as deacetylation activity using [3H]-MPSDKTIGG as substrate measured after overnight incubation by liquid scintillation counting method.
In data set [22] the target is T3, NAD-dependent protein deacetylase sirtuin-2. The data set is described as follows: Inhibition of recombinant human GST-tagged SIRT2 overexpressed in Escherichia coli DH5alpha assessed as deacetylation activity using [3H]-MPSDKTIGG as substrate measured after overnight incubation by liquid scintillation counting method.

≈ marks a conversion by molar mass, not a printed value.

NAD-dependent histone deacetylase SIR2, sequence (P06700 whole entry): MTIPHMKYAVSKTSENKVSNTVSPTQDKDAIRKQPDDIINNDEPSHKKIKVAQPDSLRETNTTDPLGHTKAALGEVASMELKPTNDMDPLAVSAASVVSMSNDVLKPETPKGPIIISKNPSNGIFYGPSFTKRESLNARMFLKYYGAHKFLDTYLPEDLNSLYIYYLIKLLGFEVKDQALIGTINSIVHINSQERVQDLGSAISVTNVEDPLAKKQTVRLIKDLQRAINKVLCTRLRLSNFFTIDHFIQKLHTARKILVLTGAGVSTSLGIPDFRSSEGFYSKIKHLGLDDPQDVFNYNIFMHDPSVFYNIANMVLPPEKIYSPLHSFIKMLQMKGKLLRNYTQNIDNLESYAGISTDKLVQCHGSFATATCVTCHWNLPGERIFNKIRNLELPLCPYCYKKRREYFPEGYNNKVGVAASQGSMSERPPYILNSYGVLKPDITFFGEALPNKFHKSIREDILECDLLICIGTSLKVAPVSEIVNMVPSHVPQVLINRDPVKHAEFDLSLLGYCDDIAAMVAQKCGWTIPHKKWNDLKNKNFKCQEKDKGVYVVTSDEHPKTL

Usually GI50 stands for the concentration at which growth is held to half of that of the control. For the compound `O=C(O)c1cccc(NC(=O)c2ccc(N3C(=O)c4ccc(C(=O)Nc5cccc(C(=O)O)c5)cc4C3=O)cc2)c1`, the GI50 in [1], in [2], in data set [3] and in data set [4] was under 1000 nM throughout. Moreover, in [5], the concentration for 50% growth inhibition (GI50) at 48 h was under 1000 nM.
The term EC50 denotes the concentration needed to bring the measured effect to its halfway point. On to `Nc1c(S(=O)(=O)c2ccccc2)c2nc3ccccc3nc2n1-c1ccc(F)cc1`, for which, in data set [6], the EC50 was under 1000 nM.
Regarding `CC(C)=CCC[C@](C)(O[C@@H]1O[C@H](CO[C@@H]2OC[C@H](O)[C@H](O)[C@H]2O)[C@@H](O)[C@H](O)[C@H]1O)[C@H]1CC[C@]2(C)[C@@H]1[C@H](O)C[C@@H]1[C@@]3(C)CC[C@H](O[C@@H]4O[C@H](CO)[C@@H](O)[C@H](O)[C@H]4O[C@@H]4O[C@H](CO)[C@@H](O)[C@H](O)[C@H]4O)C(C)(C)[C@@H]3CC[C@]12C`, the Activity in [7] lay within 8 to 152%.
Broadly, the IC50 is the concentration that gives 50% inhibition. On to `NC(=O)c1ccccc1Oc1ccccc1`, for which the IC50 in data set [8] was over 100000 nM.
`COc1ccc2[nH]c3c(c2c1)CCCC3C(=O)O` (stereo unspecified): the IC50 in [9] stood at 2800 nM.
For the compound `Oc1ccccc1-c1nc2ccc(Cl)cn2c1NCc1ccc2c(c1)OCO2`, the IC50 in [10] worked out at 32000 nM. Further, the GI50 in [1], in data set [2], in data set [3] and in [4] was under 1000 nM in each case. The concentration for 50% growth inhibition (GI50) at 48 h in [5] is under 1000 nM.
On to `COc1ccc2c3c(c4cc(OC)c(OC)cc4c2c1)CN1CCCC[C@@H]1C3`, for which the GI50 in data set [11], in [12], in data set [13], in [14], in data set [15] and in data set [16] was 0.0002 to 0.1 µg/mL (≈ 0.00053 to 0.265 µM) in each case.
As to `NC(=O)c1cccc(Nc2ccccc2)c1`, the IC50 in data set [8] is over 100000 nM.
Turning to `NC(=O)c1cccnc1` [NIACINAMIDE], the IC50 in data set [17] was under 50000 nM.
On to `CCc1ccccc1-n1c(N)c(C(=O)NCC2CCCO2)c2nc3ccccc3nc21` (stereo unspecified), for which, in [6], the EC50 was under 1000 nM.
With `N#CC1=C(N)NC(SCC(=O)c2ccc(O)c(O)c2)=C(C#N)C1=C1C=CC(=O)C=C1`, in [10], the IC50 came to 16400 nM. Further, the 50% growth inhibitory concentration (GI50) in data set [1], in [2], in data set [3] and in data set [4] was under 1000 nM each time. The GI50 at 48 h in data set [5] is under 1000 nM.
On to `COc1cc2c(c(OC)c1OC)-c1c(cc(OC)c(OC)c1OC)C[C@H](C)[C@H](C)C2`, for which the Activity in data set [18] turned out to be 28%.
As to `CCCCc1nc2c(=O)n(C)c(=O)nc-2n(C)n1`, the IC50 in data set [19] is 110 nM; in [20], over 100000 nM.
Consider `CC(C)=CCC[C@]1(C)[C@@H](CC=C(C)C)C[C@@]2(CC=C(C)C)C(=O)[C@]1(C(=O)C(C)C)C(=O)C(CC=C(C)C)=C2OCC(=O)O`, for which the IC50 in data set [21] worked out at 7000 nM; in data set [22], 21000 nM.
Take `COCCCn1c(N)c(C(=O)NC2CCCC2)c2nc3ccccc3nc21`: the EC50 in data set [6] was under 1000 nM.
